{"source": "paper PMC12080252", "about": "“Daphnia magna as an Alternative Model for (Simultaneous) Bioaccumulation and Chronic Toxicity Assessment—Controlled Exposure Study Indicates High Hazard of Heterocyclic PAHs” (Environmental Science & Technology, 2025)", "key": {"Daphnia magna": {"system": "Daphnia magna", "assay_type": "in vivo", "conditions": "for body burden at the end of the depuration phase: 12-day depuration; for log BAF*L5%: 21 days of exposure, assuming steady-state; for % reproductive inhibition: Fig. S10; for % inhibition, avr.: average of vessels; for body burden: after 21-day exposure; for removed fraction of accumulated body burden: after 12 days of depuration; for #dead offspring per mother / #live offspring per mother: per vessel; for appearance of mother: vessel 3", "experimental": "To maximize data output, we combined chronic toxicity and bioaccumulation tests in an integrated approach where the chronic toxicity test also served as an uptake phase followed by a depuration/recovery phase (Table S3). This simultaneous bioaccumulation/chronic toxicity test was performed for BNT and DNF. Of the 10 replicates per exposure level, five animals were sampled on day 21 to measure accumulated chemical concentrations and wet weights. The remaining five were transferred to clean media without test chemicals for a 12-day depuration phase under conditions identical with the uptake phase except for the absence of test chemicals. Juvenile counts were recorded daily. At the end of the depuration period, five Daphnia were collected, weighed, and analyzed for body burden (i.e., concentration of test chemical per unit of body weight) using the extraction procedure described in Section 2.7.\nFor quantification of body burdens, 5 daphnids were thawed, homogenized in 5 mL Milli-Q water (IKA T-25 digital Ultra-TURRAX) and extracted twice with 2 mL of hexane. The extracts were combined, dried with Na2SO4, concentrated under a nitrogen stream, and spiked with internal standard."}, "D. magna": {"system": "D. magna", "conditions": "Table S1; footnote not given; cited from earlier work"}, "[1]": {"conditions": "after DNF 1.43 µg/L exposure, 12-day depuration phase"}, "[2]": {"conditions": "after 11.96 µg/L, depuration phase day 1"}, "[3]": {"conditions": "after 11.96 µg/L, depuration phase day 9"}}, "note": "“And” between values parts separate entries of the source, which are not always exact repeats. Identical values can stand only once. Like-named read-outs stand apart in the source and are kept apart here.", "data": [{"compound": "c1ccc2c(c1)ccc1oc3ccc4ccccc4c3c12", "note": "[DNF, dinaphtho[2,1-b:1′,2′-d]furan]", "values": [{"measurement": "body burden at the end of the depuration phase", "setting": "Daphnia magna", "value": "below the LOQ"}, {"measurement": "log BAF*L5%", "setting": "Daphnia magna", "value": 4.20}, {"measurement": "% reproductive inhibition", "setting": "Daphnia magna; DNF 1.43 µg/L, entire test (days 1-33)", "value": 35, "unit": "%"}, {"measurement": "% reproductive inhibition", "setting": "Daphnia magna; DNF 1.43 µg/L, only depuration phase (days 21-33)", "value": 14, "unit": "%"}, {"measurement": "% reproductive inhibition", "setting": "Daphnia magna; DNF 1.43 µg/L, only uptake phase (days 0-21)", "value": 57, "unit": "%"}, {"measurement": "%offspring mortality", "setting": "Daphnia magna; DNF 1.43 µg/L, 21-day exposure", "value": 42.26, "unit": "%"}, {"measurement": "% inhibition, avr.", "setting": "Daphnia magna; DNF 1.43 µg/L, 21-day exposure", "value": 57.5, "unit": "%"}, {"measurement": "#average live offspring", "setting": "Daphnia magna; DNF 1.43 µg/L, 21-day exposure, per surviving mother", "value": 31}, {"measurement": "#total live offspring", "setting": "Daphnia magna; DNF 1.43 µg/L, 21-day exposure, sum of all vessels", "value": 276}, {"measurement": "body burden", "setting": "Daphnia magna; CW = 1.4 μg L^–1", "value": 6.9, "unit": "mg kg^–1"}, {"measurement": "removed fraction of accumulated body burden", "setting": "Daphnia magna", "value": "at least 99.57%"}, {"measurement": "#average live offspring (depuration phase)", "setting": "Daphnia magna; [1]", "value": 64}, {"measurement": "%offspring mortality (depuration phase)", "setting": "Daphnia magna; [1]", "value": 3.38, "unit": "%"}, {"measurement": "#total live offspring (depuration phase)", "setting": "Daphnia magna; after DNF 1.43 µg/L exposure, 12-day depuration phase, sum of all vessels", "value": 257}, {"measurement": "observation of mother animal (depuration phase)", "setting": "Daphnia magna; after DNF 1.43 µg/L exposure, vessel 8, depuration day 3", "value": "dead"}]}, {"compound": "c1ccc2c(c1)ccc1[nH]c3ccccc3c12", "note": "[BCRB, 7H-benzo[c]carbazole]", "values": [{"measurement": "lowest PNEC*", "setting": "D. magna", "value": 0.017, "unit": "µg/L"}]}, {"compound": "c1ccc2c(c1)ccc1sc3ccccc3c12", "note": "[BNT, benzo[b]naphtho[1,2-d]thiophene]", "values": [{"measurement": "%offspring mortality", "setting": "Daphnia magna; 11.96 µg/L, 21-day exposure", "value": 28.01, "unit": "%"}, {"measurement": "#total live offspring", "setting": "Daphnia magna; 11.96 µg/L, all vessels, exposure day 9", "value": 32}, {"measurement": "#total live offspring", "setting": "Daphnia magna; 11.96 µg/L, all vessels, exposure day 12", "value": 46}, {"measurement": "#total live offspring", "setting": "Daphnia magna; 11.96 µg/L, all vessels, exposure day 13", "value": 42}, {"measurement": "#total live offspring", "setting": "Daphnia magna; 11.96 µg/L, all vessels, exposure day 14", "value": 15}, {"measurement": "#total live offspring", "setting": "Daphnia magna; 11.96 µg/L, all vessels, exposure day 15", "value": 0}, {"measurement": "#total live offspring", "setting": "Daphnia magna; 11.96 µg/L, all vessels, exposure day 16", "value": 77}, {"measurement": "#total live offspring", "setting": "Daphnia magna; 11.96 µg/L, all vessels, exposure day 19", "value": 56}, {"measurement": "#total live offspring", "setting": "Daphnia magna; 11.96 µg/L, all vessels, exposure day 20", "value": 46}, {"measurement": "#total live offspring", "setting": "Daphnia magna; 11.96 µg/L, all vessels, exposure day 21", "value": 20}, {"measurement": "#total live offspring", "setting": "Daphnia magna; 11.96 µg/L, all vessels, whole 21-day exposure", "value": 329}, {"measurement": "average increase of live offspring", "setting": "Daphnia magna; 11.96 µg/L, cumulative, exposure day 9", "value": 3.2}, {"measurement": "average increase of live offspring", "setting": "Daphnia magna; 11.96 µg/L, cumulative, exposure day 12", "value": 8}, {"measurement": "average increase of live offspring", "setting": "Daphnia magna; 11.96 µg/L, cumulative, exposure day 13", "value": 12}, {"measurement": "average increase of live offspring", "setting": "Daphnia magna; 11.96 µg/L, cumulative, exposure day 14", "value": 14}, {"measurement": "average increase of live offspring", "setting": "Daphnia magna; 11.96 µg/L, cumulative, exposure day 15", "value": 14}, {"measurement": "average increase of live offspring", "setting": "Daphnia magna; 11.96 µg/L, cumulative, exposure day 16", "value": 23}, {"measurement": "average increase of live offspring", "setting": "Daphnia magna; 11.96 µg/L, cumulative, exposure day 19", "value": 29}, {"measurement": "average increase of live offspring", "setting": "Daphnia magna; 11.96 µg/L, cumulative, exposure day 20", "value": 34}, {"measurement": "average increase of live offspring", "setting": "Daphnia magna; 11.96 µg/L, cumulative, exposure day 21", "value": 36}, {"measurement": "% inhibition, avr.", "setting": "Daphnia magna; 11.96 µg/L, live offspring, 21-day exposure", "value": 49.3, "unit": "%"}, {"measurement": "#average live offspring", "setting": "Daphnia magna; 11.96 µg/L, per mother, 21-day exposure", "value": 36}, {"measurement": "#dead offspring per mother", "setting": "Daphnia magna; 11.96 µg/L, exposure day 15", "value": 0}, {"measurement": "#live offspring per mother", "setting": "Daphnia magna; 11.96 µg/L, exposure day 15", "value": 0}, {"measurement": "appearance of mother", "setting": "Daphnia magna; 11.96 µg/L, exposure day 5", "value": "very small/pale"}, {"measurement": "appearance of mother", "setting": "Daphnia magna; 11.96 µg/L, exposure day 7", "value": "very small"}, {"measurement": "status of mother", "setting": "Daphnia magna; 11.96 µg/L, vessel 4, exposure day 13", "value": "dead"}, {"measurement": "body burden at the end of the depuration phase", "setting": "Daphnia magna", "value": "below the LOQ"}, {"measurement": "log BAF*L5%", "setting": "Daphnia magna", "value": "4.58 ± 0.05 and 4.58"}, {"measurement": "% reproductive inhibition", "setting": "Daphnia magna; BNT 4.3 µg/L, entire test (days 1-33)", "value": 20, "unit": "%"}, {"measurement": "% reproductive inhibition", "setting": "Daphnia magna; BNT 4.3 µg/L, only depuration phase (days 21-33)", "value": 6, "unit": "%"}, {"measurement": "% reproductive inhibition", "setting": "Daphnia magna; BNT 4.3 µg/L, only uptake phase (days 0-21)", "value": 36, "unit": "%"}, {"measurement": "% inhibition, avr.", "setting": "Daphnia magna; BNT 4.72 µg/L, 21-day exposure", "value": 35.5, "unit": "%"}, {"measurement": "% reproductive inhibition", "setting": "Daphnia magna; BNT 12 µg/L, entire test (days 1-33)", "value": 32, "unit": "%"}, {"measurement": "% reproductive inhibition", "setting": "Daphnia magna; BNT 12 µg/L, only depuration phase (days 21-33)", "value": 15, "unit": "%"}, {"measurement": "% reproductive inhibition", "setting": "Daphnia magna; BNT 12 µg/L, only uptake phase (days 0-21)", "value": 49, "unit": "%"}, {"measurement": "%offspring mortality", "setting": "Daphnia magna; after 11.96 µg/L, 12-day depuration phase", "value": 3.94, "unit": "%"}, {"measurement": "#total live offspring", "setting": "Daphnia magna; after 11.96 µg/L, all vessels, depuration phase day 1", "value": 0}, {"measurement": "#total live offspring", "setting": "Daphnia magna; after 11.96 µg/L, all vessels, depuration phase day 2", "value": 61}, {"measurement": "#total live offspring", "setting": "Daphnia magna; after 11.96 µg/L, all vessels, depuration phase day 5", "value": 35}, {"measurement": "#total live offspring", "setting": "Daphnia magna; after 11.96 µg/L, all vessels, depuration phase day 6", "value": 63}, {"measurement": "#total live offspring", "setting": "Daphnia magna; after 11.96 µg/L, all vessels, depuration phase day 7", "value": 37}, {"measurement": "#total live offspring", "setting": "Daphnia magna; after 11.96 µg/L, all vessels, depuration phase day 8", "value": 1}, {"measurement": "#total live offspring", "setting": "Daphnia magna; after 11.96 µg/L, all vessels, depuration phase day 9", "value": 0}, {"measurement": "#total live offspring", "setting": "Daphnia magna; after 11.96 µg/L, all vessels, depuration phase day 12", "value": 120}, {"measurement": "#total live offspring", "setting": "Daphnia magna; after 11.96 µg/L, all vessels, whole 12-day depuration phase", "value": 317}, {"measurement": "average increase of live offspring", "setting": "Daphnia magna; after 11.96 µg/L, cumulative since exposure start, depuration phase day 1", "value": 36}, {"measurement": "average increase of live offspring", "setting": "Daphnia magna; after 11.96 µg/L, cumulative since exposure start, depuration phase day 2", "value": 48}, {"measurement": "average increase of live offspring", "setting": "Daphnia magna; after 11.96 µg/L, cumulative since exposure start, depuration phase day 5", "value": 55}, {"measurement": "average increase of live offspring", "setting": "Daphnia magna; after 11.96 µg/L, cumulative since exposure start, depuration phase day 6", "value": 68}, {"measurement": "average increase of live offspring", "setting": "Daphnia magna; after 11.96 µg/L, cumulative since exposure start, depuration phase day 7", "value": 75}, {"measurement": "average increase of live offspring", "setting": "Daphnia magna; after 11.96 µg/L, cumulative since exposure start, depuration phase day 8", "value": 76}, {"measurement": "average increase of live offspring", "setting": "Daphnia magna; after 11.96 µg/L, cumulative since exposure start, depuration phase day 9", "value": 76}, {"measurement": "average increase of live offspring", "setting": "Daphnia magna; after 11.96 µg/L, cumulative since exposure start, depuration phase day 12", "value": 100}, {"measurement": "#average live offspring", "setting": "Daphnia magna; after 11.96 µg/L, per mother, 12-day depuration phase", "value": 63}, {"measurement": "#dead offspring per mother", "setting": "Daphnia magna; [2]", "value": 0}, {"measurement": "#live offspring per mother", "setting": "Daphnia magna; [2]", "value": 0}, {"measurement": "#dead offspring per mother", "setting": "Daphnia magna; after 11.96 µg/L, depuration phase day 8", "value": 0}, {"measurement": "#dead offspring per mother", "setting": "Daphnia magna; [3]", "value": 0}, {"measurement": "#live offspring per mother", "setting": "Daphnia magna; [3]", "value": 0}, {"measurement": "body burden", "setting": "Daphnia magna; CW = 4.7 μg L^–1", "value": 50, "unit": "mg kg^–1"}, {"measurement": "body burden", "setting": "Daphnia magna; CW = 12 μg L^–1", "value": 150, "unit": "mg kg^–1 wet weight"}, {"measurement": "removed fraction of accumulated body burden", "setting": "Daphnia magna", "value": "≥ 99.98", "unit": "%"}]}]}
